# Results: article PMC11042424, “Development of a First-in-Class RIPK1 Degrader to Enhance Antitumor Immunity” (Research Square, 2024)
# Legend:
# [1] = Stability in human liver S9 fractions; type: in vitro ADME
# [2] = tested on: B16F10 cells; experiment: TNFα-mediated apoptosis in B16F10 cells; type: cell-based, mouse; settings: 1 μM, TNFα 100 ng/mL, 72 hours
# From the text: Figure 3 LD4172 sensitizes B16F10 cells to TNFα-mediated apoptosis. A, Representative flow cytometry dot plots of apoptosis. In all four plots, viable cells are seen in the left lower quadrant (FITC-/PI-), early apoptotic cells in the right lower quadrant (FITC+/PI-), and late apoptotic cells in the right upper quadrant (FITC+/PI+). B, Representative images of PI (red) and caspase 3/7 (Cas3/7+, green) staining of B16F10 cells. Cell death assessed by PI uptake using Cytation 5 imager. C, Western blots for the expression of cleaved caspase3, cleaved caspase7, and cleaved PARP in B16F10 cells. D, Quantification of extracellular ATP level. Western blots for the expression of HMGB1 and calreticulin in B16F10 cells. E, Immunofluorescence staining of HMGB1 in B16F10 cells. B16F10 cells were treated in the presence or absence of TNFα (100 ng/mL), Z-VAD-FMK (25 μM), LD4172 (1 μM), and/or T2I (1 μM) as indicated for 72 hours. Data are representative of three independent experiments. Error bars represent SD.
# Apoptosis quantification was conducted utilizing a FITC-conjugated Annexin V/PI assay kit (556547, BD Biosciences) and analyzed through flow cytometry. Briefly, 2×10^5 of B16F10 cells were seeded onto six-well plates and treated as specified for 72 hours at 37°C. Treated and untreated cells were harvested, washed with PBS, and resuspended in 100 μl of binding buffer. […]
# [3] = tested on: B16F10 tumors; experiment: Five-day treatment of B16F10 tumors: cell death and tumor immune microenvironment; type: in vivo, C57BL/6J mice
# From the text: Figure 5 LD4172 alters the tumor immune microenvironment. A. Representative immunofluorescent images depict RIPK1, Calreticulin, CD8, CD4, Foxp3, or F4/80, as well as hematoxylin and eosin (H&E) images, alongside representative images illustrating cleaved caspase3/7 levels in B16F10 tumors under the indicated treatment for five days. n = 4–6 independent fields per group. Scale bars are shown as follows: 20 μm, objective 60X; 200 μm, objective 60X. B. The mouse plasma HMGB1 level from different treatment groups (n=8). C-G. Flow cytometry quantification of PD1+CD8+ T cells (C), CD4+ T cells (D), cDC cells (E), macrophages (F), and CD8+ T cells (G) in B16F10 tumors following 5 days of indicated treatment (n = 10/group). H. Flow cytometric quantification of IFNγ+ CD8+ T cells in B16F10 tumors treated with the indicated treatments for 5 days and stimulated with PMA/ionomycin in vitro for 6 h (n = 10/group). I. Tumor volume (mm3) of vehicle-, anti-PD1-, LD4172-, anti-PD1+LD4172-, and anti-PD1+LD4172+anti-CD8–treated B16F10 tumors (n=8). J. Heat map showing log 10-fold changes in the concentration of mouse plasma cytokines normalized by the mean value of control mice (n=8). For all experiments: LD4172: 20 mg/kg; anti-PD1 antibody: 100 μg/mice; Combo: LD4172 plus anti-PD1. Representative data from at least three independent experiments are shown. Data are expressed as the mean ± SEM. * p<0.05; ** p<0.01; *** p<0.001; **** p<0.0001, respectively. “ns” indicates no statistical significance.
# Tumors were collected on day 13, weighed, mechanically diced, and digested with liberase (2 mg/mL, 05401020001, Roche) and DNase I (50 μg/mL, 11284932001, Sigma-Aldrich) at 37°C for 30 minutes with rotation. Single-cell suspensions were obtained by filtering the digested tissues through a 45 μm strainer, after which erythrocytes were removed using 1x RBC lysis buffer (420301, Biolegend). To stain the cell surface markers of tumor-infiltrating lymphocytes (TILs), single-cell suspensions were blocked with anti-mouse CD16/32 (156603, BioLegend) for 10 minutes on ice, and then incubated with fluorochrome-labeled antibodies diluted with staining buffer (1:50, PBS, 2% FBS, 0.1% EDTA) for 30 minutes on ice in the dark. Dead cells were excluded using DAPI (1:1,000, BioLegend). After washing, cells were resuspended in 300–500 μL staining buffer for flow cytometry analysis. For intracellular cytokine staining, cells were incubated in culture medium (RPMI-1640, 10% FBS, Brefeldin A or Cell Activation Cocktail (with Brefeldin A)) at 37°C for 6 h. Cells were stained with eBioscience™ Fixable Viability Dye eFluor™ 450, TruStain FcX™ PLUS and surface CD45, CD3ε, CD8a. Cells were fixed-permeabilized by Intracellular Fixation & Permeabilization Buffer Set (Biolegend, 421403) according to the manufacturer’s protocol. Then cells were stained with anti-IFNγ (XMG1.2) for 1 hour at room temperature (RT). Cells were resuspended in FACS buffer and subjected to BD LSR-II for analysis.
# Mouse serum was analyzed using multiplex immunoassays designed for mice (Mouse Cytokine Array / Chemokine Array 31-Plex (MD31) from Eve Technologies), with 8 replicates from each group. Heatmaps display relative cytokine expression values normalized to vehicle-treated samples. Serum HMGB1 was analyzed by ELISA (NOVUS, NBP2–62767) according to the manufacturer’s protocol.
# For H&E staining, the hydrated slides were stained with hematoxylin and eosin. For IHC analysis, after hydration, the sections were subjected to antigen retrieval by incubating in citrate buffer (pH 6.0), Tris EDTA buffer (pH 9.0), or EDTA buffer (pH 8.0) at 121°C for 15 minutes. Endogenous peroxidase was blocked with 3% H2O2 in PBS, and non-specific binding was blocked with 2.5% normal serum for 1 hour at room temperature. The sections were then incubated with the respective primary antibodies overnight at 4°C. […]
compound,measurement,setting,value
Cc1ncsc1-c1ccc([C@H](C)NC(=O)[C@@H]2C[C@@H](O)CN2C(=O)[C@@H](NC(=O)CCCCCCCCCCC(=O)NCCCn2cc(-c3ccc4c(c3)CCN4C(=O)Cc3cccc(OC(F)(F)F)c3)c3c(N)ncnc32)C(C)(C)C)cc1 [LD4172],half-life,[1],21.1 min
same,intrinsic clearance (CLint),[1],32.8 μL·min^− 1·mg^− 1 protein
same,cell death / apoptosis in combination with TNFα,[2],significant cell death
same,RIPK1 degradation in the tumor,[3]; 20 mg/kg,substantial degradation of RIPK1
same,cell death in the tumor (H&E),[3]; 20 mg/kg,significant cell death
same,cleaved caspase 3/7 levels in tumors,[3]; 20 mg/kg,notable increase
same,plasma HMGB1 levels,[3]; 20 mg/kg,significant increase
same,"CD4 + T cells, conventional dendritic cells and macrophages within the TME","[3]; 20 mg/kg, flow cytometry",notable expansion
same,"cytotoxic CD8 + T cells within the TME, combined with anti-PD1",[3]; LD4172 20 mg/kg plus anti-PD1 100 μg,increased infiltration
